For test [1], the target named is T1, EGFR L858R/T790M (H1975-clone #36, homozygous) (Homo sapiens, UniProt P00533, L858R/T790M).
T1 construct: designed to specifically target WT EGFR but preserve the L858R/T790M copy; host or cells: H1975-clone #36
Nature of the test: EGFR degradation HTRF assay, H1975-clone #36 cells. It counts as cell-based. To be noted: H1975 #36, 16h treatment; for Dmax: NCI-H1975, maximum percentage of degradation. The method, then:
H1975-clone #36(L858R/T790M). H1975 cell heterozygously (from ATCC) contains alleles of WT and L858R/T790M EGFR. H1975-clone #36(L858R/T790M) was generated by gene knockout, in which the EGFR targeting sgRNA was designed to specifically target WT EGFR but preserve the L858R/T790M copy. Followed by the gene knockout, the edited H1975 cells were seeded in 96 well plates at the concentration of 1 cell/well, cultured for about 2 weeks to allow single clones formation. The formed clones were screened by DNA sequencing for the desired edition. H1975-clone #36 was confirmed as a homozygous L858R/T790M EGFR clone.
BaF3 WT(wild type), BaF3-LTC(L858R/T790M/C797S) and BaF3-DTC(Del19/T790M/C797S) cells are treated with compounds diluted in 0.2% DMSO cell culture medium and incubate for 16h, 37° C., 5% CO2, H1975-#36, H1975-#28, H1975-#23 and HCC827 cells are treated with compounds diluted in 0.2% DMSO cell culture medium on day 2, incubate for 16h, 37° C., 5% CO2.the final concentriation of compounds in all assay is start with 10 uM, 5-fold dilution, total 8 doses were included.
After 16h treatment, add HTRF lysis buffer to each well; seal the plate and incubate 1 hour at room temperature on a plate shaker; Once the cells are lysed, 16 μL of cell lysate are transferred to a PE 384-well HTRF detection plate; 4 μL of pre-mixed HTRF antibodies are added to each well; Cover the plate with a plate sealer, spin 1000 rpm for 1 min, Incubate overnight at room temperature; Read on BMG PheraStar with HTRF protocol (337 nm-665 nm-620 nm).
The inhibition (degradation) percentage of the compound was calculated by the following equation: Inhibition percentage of Compound=100-100×(Signal-low control)/(High control-low control), wherein signal=each test compound group
High control=Cell group with added DMSO and without compound, indicating microplate readings without EGFR degradation;
Dmax is the maximum percentage of inhibition (degradation).
The IC50 (DC50) value of a compound can be obtained by fitting the following equation
Y=Bottom+(TOP−Bottom)/(1+((IC50/X)^hillslope))
Wherein, X and Y are known values, and IC50, Hillslope, Top and Bottom are the parameters obtained by fitting with software. Y is the inhibition percentage (calculated from the equation), X is the concentration of the compound; IC50 is the concentration of the compound when the 50% inhibition is reached. The smaller the IC50 value is, the stronger the inhibitory ability of the compound is. Vice versa, the higher the IC50 value is, the weaker the inhibitory ability of the compound is; Hillslope represents the slope of the fitted curve, generally around 1*; Bottom represents the minimum value of the curve obtained by data fitting, which is generally 0%±20%; Top represents the maximum value of the curve obtained by data fitting, which is generally 100%±20%. The experimental data were fitted by calculating and analyzing with Dotmatics data analysis software.
(TR-FRET usually uses a lanthanide donor and a delayed reading to cut background.)

A further test addresses T2, EGFR (HCC827 cells) (Homo sapiens, UniProt P00533, DEL746-750).
T2 construct: endogenous in cells; host or cells: HCC827
Briefly: EGFR degradation HTRF assay, HCC827 cells. It counts as cell-based. The conditions noted are these: HCC827, 16h treatment; for Dmax: maximum percentage of degradation. Put shortly:
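BaF3 (WT, Del19/T790M/C797S) and HCC827 cells exposed 16 h at 37 °C, 5% CO2 to compounds in 0.2% DMSO medium, 8 doses from 10 uM top, 5-fold steps. Lysates read by HTRF (665/620 nm); degradation % vs DMSO control, DC50 from four-parameter fit, Dmax as maximal degradation.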

This is an account of results in patent publication US20230265116A1, “DEGRADATION OF (EGFR) BY CONJUGATION OF EGFR INHIBITORS WITH E3 LIGASE LIGAND AND METHODS OF USE” (BEIGENE, LTD., priority 2020, published 2023).

SMILES strings stand for the structures.

T1 sequence (P00533 25-1210 T790M/L858R): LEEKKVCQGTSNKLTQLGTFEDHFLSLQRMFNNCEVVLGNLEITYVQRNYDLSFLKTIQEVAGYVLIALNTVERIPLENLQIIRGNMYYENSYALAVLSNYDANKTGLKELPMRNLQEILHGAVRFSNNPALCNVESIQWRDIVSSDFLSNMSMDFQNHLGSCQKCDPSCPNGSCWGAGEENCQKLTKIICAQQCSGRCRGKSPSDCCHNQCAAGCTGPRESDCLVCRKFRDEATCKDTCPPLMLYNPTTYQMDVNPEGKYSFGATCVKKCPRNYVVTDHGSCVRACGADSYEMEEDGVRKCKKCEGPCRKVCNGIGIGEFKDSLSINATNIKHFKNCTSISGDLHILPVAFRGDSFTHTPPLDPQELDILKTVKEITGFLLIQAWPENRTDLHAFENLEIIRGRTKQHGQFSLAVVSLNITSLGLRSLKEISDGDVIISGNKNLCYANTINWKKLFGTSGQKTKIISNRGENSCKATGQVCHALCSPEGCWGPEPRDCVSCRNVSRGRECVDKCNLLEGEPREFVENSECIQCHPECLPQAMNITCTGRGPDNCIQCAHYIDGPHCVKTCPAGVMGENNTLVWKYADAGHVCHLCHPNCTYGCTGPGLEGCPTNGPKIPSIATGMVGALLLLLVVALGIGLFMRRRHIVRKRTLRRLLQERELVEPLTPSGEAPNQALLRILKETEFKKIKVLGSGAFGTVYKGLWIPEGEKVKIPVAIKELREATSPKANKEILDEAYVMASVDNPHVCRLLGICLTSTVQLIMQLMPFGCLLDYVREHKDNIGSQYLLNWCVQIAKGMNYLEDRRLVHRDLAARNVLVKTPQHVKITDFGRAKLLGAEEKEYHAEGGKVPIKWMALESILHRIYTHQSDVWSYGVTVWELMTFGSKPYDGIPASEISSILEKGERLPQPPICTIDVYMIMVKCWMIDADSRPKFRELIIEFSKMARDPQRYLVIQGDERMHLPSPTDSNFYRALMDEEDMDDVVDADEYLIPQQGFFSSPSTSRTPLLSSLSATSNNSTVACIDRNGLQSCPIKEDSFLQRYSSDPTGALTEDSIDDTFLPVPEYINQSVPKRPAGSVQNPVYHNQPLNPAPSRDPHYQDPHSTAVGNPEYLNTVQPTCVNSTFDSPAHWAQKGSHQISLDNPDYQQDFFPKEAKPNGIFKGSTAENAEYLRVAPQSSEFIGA
T2 sequence (P00533 with tags, fused parts or gaps DEL746-750): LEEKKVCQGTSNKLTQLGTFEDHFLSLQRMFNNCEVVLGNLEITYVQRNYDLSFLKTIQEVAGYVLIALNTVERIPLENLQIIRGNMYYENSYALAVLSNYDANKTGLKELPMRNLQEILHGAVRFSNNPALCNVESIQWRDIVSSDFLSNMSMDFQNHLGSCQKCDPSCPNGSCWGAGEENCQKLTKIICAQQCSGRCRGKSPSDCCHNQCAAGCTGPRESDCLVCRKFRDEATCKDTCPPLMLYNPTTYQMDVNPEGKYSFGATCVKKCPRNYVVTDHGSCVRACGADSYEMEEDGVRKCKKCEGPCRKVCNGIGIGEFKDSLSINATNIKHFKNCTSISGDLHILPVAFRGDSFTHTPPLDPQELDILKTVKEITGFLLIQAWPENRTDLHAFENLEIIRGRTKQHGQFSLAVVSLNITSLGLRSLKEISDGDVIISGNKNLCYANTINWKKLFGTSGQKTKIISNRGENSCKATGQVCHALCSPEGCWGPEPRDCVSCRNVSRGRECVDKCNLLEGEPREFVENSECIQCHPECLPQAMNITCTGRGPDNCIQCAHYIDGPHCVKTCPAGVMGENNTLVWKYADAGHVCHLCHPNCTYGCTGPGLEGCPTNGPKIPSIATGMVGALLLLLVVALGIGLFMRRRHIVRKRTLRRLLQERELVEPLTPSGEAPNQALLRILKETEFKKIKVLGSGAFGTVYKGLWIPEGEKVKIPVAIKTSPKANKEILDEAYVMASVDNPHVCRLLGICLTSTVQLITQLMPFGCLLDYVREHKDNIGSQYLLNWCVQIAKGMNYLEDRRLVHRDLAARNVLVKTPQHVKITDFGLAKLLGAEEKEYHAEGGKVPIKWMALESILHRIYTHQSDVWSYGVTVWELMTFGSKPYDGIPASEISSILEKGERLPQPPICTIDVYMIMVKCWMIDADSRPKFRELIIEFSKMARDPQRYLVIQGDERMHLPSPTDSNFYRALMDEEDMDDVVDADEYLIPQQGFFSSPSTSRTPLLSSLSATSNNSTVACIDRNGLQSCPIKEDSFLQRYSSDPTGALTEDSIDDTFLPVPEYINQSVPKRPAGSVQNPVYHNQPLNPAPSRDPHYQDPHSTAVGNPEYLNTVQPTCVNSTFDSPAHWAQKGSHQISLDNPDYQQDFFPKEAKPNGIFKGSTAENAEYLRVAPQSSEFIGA

Broadly, the DC50 is the concentration giving 50% degradation. What is called Dmax is the largest share of the target that was removed. A lower Dmax goes with a partial loss of target. `COc1cc(N2CCN(CC3CCN(c4ccc(N5CCC(=O)NC5=O)c(F)c4)CC3)CC2)c(C)cc1Nc1ncc(Br)c(Nc2ccc3nccnc3c2P(C)(C)=O)n1` [Example 96, 1-(4-(4-((4-(4-((5-bromo-4-((5-(dimethylphosphoryl)quinoxalin-6-yl)amino)pyrimidin-2-yl)amino)-5-methoxy-2-methylphenyl)piperazin-1-yl)methyl)piperidin-1-yl)-2-fluorophenyl)dihydropyrimidine-2,4(1H,3H)-dione]: the figures for the DC50 (in test [1]; on EGFR (HCC827 cells)) were > 10000 nM and 151 nM, respectively. Moreover, the Dmax was 7.3% in test [1] and 67% on EGFR (HCC827 cells).
For `COc1cc(N2CCN(CC3CCN(c4ccc(C5CCC(=O)NC5=O)cc4)CC3)CC2)ccc1Nc1ncc(Br)c(Nc2ccc3nccnc3c2P(C)(C)=O)n1` (centres unmarked) [Example 89, 3-(4-(4-((4-(4-((5-bromo-4-((5-(dimethylphosphoryl)quinoxalin-6-yl)amino)pyrimidin-2-yl)amino)-3-methoxyphenyl)piperazin-1-yl)methyl)piperidin-1-yl)phenyl)piperidine-2,6-dione] the same measures were 6.23 nM, 59.6 nM, 84.7% and 91.8%.
For `COc1cc(N2CCN(CCC3CCN(c4ccc(C5CCC(=O)NC5=O)cc4)CC3)CC2)c(C)cc1Nc1ncc(Br)c(Nc2ccc3nccnc3c2P(C)(C)=O)n1` (centres unmarked) [Example 90, 3-(4-(4-(2-(4-(4-((5-bromo-4-((5-(dimethylphosphoryl)quinoxalin-6-yl)amino)pyrimidin-2-yl)amino)-5-methoxy-2-methylphenyl)piperazin-1-yl)ethyl)piperidin-1-yl)phenyl)piperidine-2,6-dione] the same measures were 6.53 nM, 12.8 nM, 77.5% and 81.4%.
On the same counts, the results for `CCc1cc(Nc2ncc(Br)c(Nc3ccc4nccnc4c3P(C)(C)=O)n2)c(OC)cc1N1CCC(N2CCN(C(=O)CCC3CN(c4ccc5c(c4)C(=O)N(C4CCC(=O)NC4=O)C5=O)C3)CC2)CC1` (centres unmarked) [Example 57, 5-(3-(3-(4-(1-(4-((5-bromo-4-((5-(dimethylphosphoryl)quinoxalin-6-yl)amino)pyrimidin-2-yl)amino)-2-ethyl-5-methoxyphenyl)piperidin-4-yl)piperazin-1-yl)-3-oxopropyl)azetidin-1-yl)-2-(2,6-dioxopiperidin-3-yl)isoindoline-1,3-dione] are 5.31 nM, 4.8 nM, 77.4% and 76.1%.
In test [1], `COc1cc(N2CCC(N3CCN(CCCC4CN(c5ccc6c(c5)C(=O)N(C5CCC(=O)NC5=O)C6=O)C4)CC3)CC2)ccc1Nc1ncc(Cl)c(Nc2ccccc2P(C)(C)=O)n1` (centres unmarked) [Example 118, 5-(3-(3-(4-(1-(4-((5-chloro-4-((2-(dimethylphosphoryl)phenyl)amino)pyrimidin-2-yl)amino)-3-methoxyphenyl)piperidin-4-yl)piperazin-1-yl)propyl)azetidin-1-yl)-2-(2,6-dioxopiperidin-3-yl)isoindoline-1,3-dione] displayed a DC50 of 24.7 nM and a Dmax of 82.4%. For the same compound, on EGFR (HCC827 cells), the DC50 was found to be 22.7 nM and the Dmax was 76%.
For `CCc1cc(Nc2ncc(Br)c(Nc3ccc4nccnc4c3P(C)(C)=O)n2)c(OC)cc1N1CCC(N2CCN(CCc3ccc(C4CCC(=O)NC4=O)c(C)c3)CC2)CC1` (centres unmarked) [Example 3, 3-(4-(2-(4-(1-(4-((5-bromo-4-((5-(dimethylphosphoryl)quinoxalin-6-yl)amino)pyrimidin-2-yl)amino)-2-ethyl-5-methoxyphenyl)piperidin-4-yl)piperazin-1-yl)ethyl)-2-methylphenyl)piperidine-2,6-dione] the same measures were > 10000 nM, 45.1%, 14.3 nM and 72.3%.
As to `COc1cc(N2CCC(N3CCN(CCC4CCN(c5ccc(N6CCC(=O)NC6=O)cc5)CC4)CC3)CC2)ccc1Nc1ncc(Cl)c(Nc2ccccc2NS(C)(=O)=O)n1` [Example 139, N-(2-((5-chloro-2-((4-(4-(4-(2-(1-(4-(2,4-dioxotetrahydropyrimidin-1(2H)-yl)phenyl)piperidin-4-yl)ethyl)piperazin-1-yl)piperidin-1-yl)-2-methoxyphenyl)amino)pyrimidin-4-yl)amino)phenyl) methanesulfonamide], on EGFR (HCC827 cells), half-maximal degradation (DC50) was put at 53.6 nM and the Dmax was found to be 75.7%.
On the same counts, the results for `CCc1cc(Nc2ncc(Br)c(Nc3ccc4nccnc4c3P(C)(C)=O)n2)c(OC)cc1N1CCC(N2CCN(C(=O)CN3CCN(c4ccc5c(c4)C(=O)N(C4CCC(=O)NC4=O)C5)CC3)CC2)CC1` (centres unmarked) [Example 68, 3-(6-(4-(2-(4-(1-(4-((5-bromo-4-((5-(dimethylphosphoryl)quinoxalin-6-yl)amino)pyrimidin-2-yl)amino)-2-ethyl-5-methoxyphenyl)piperidin-4-yl)piperazin-1-yl)-2-oxoethyl)piperazin-1-yl)-1-oxoisoindolin-2-yl)piperidine-2,6-dione] are 13.1 nM and 64.3%.
At EGFR (HCC827 cells), `COc1cc(N2CCN(CCc3ccc(OC4CCC(=O)NC4=O)cc3)CC2)c(C)cc1Nc1ncc(Br)c(Nc2ccc3nccnc3c2P(C)(C)=O)n1` (centres unmarked) [Example 93, 3-(4-(2-(4-(4-((5-bromo-4-((5-(dimethylphosphoryl)quinoxalin-6-yl)amino)pyrimidin-2-yl)amino)-5-methoxy-2-methylphenyl)piperazin-1-yl)ethyl)phenoxy)piperidine-2,6-dione] displayed a DC50 of 130 nM and a Dmax of 72.4%.
On the same counts, the results for `COc1cc(N2CCC(N3CCN(C(=O)CC4CCN(c5ccc(C6CCC(=O)NC6=O)cc5)CC4)CC3)CC2)ccc1Nc1ncc(Cl)c(Nc2ccccc2N(C)S(C)(=O)=O)n1` (centres unmarked) [Example 122, N-(2-((5-chloro-2-((4-(4-(4-(2-(1-(4-(2,6-dioxopiperidin-3-yl)phenyl)piperidin-4-yl)acetyl)piperazin-1-yl)piperidin-1-yl)-2-methoxyphenyl)amino)pyrimidin-4-yl)amino)phenyl)-N-methylmethanesulfonamide] are 6.37 nM and 69.2%.
For `COc1cc(N2CCC(N3CCN(C(=O)CCCCN4CCN(c5ccc6c(c5)C(=O)N(C5CCC(=O)NC5=O)C6=O)CC4)CC3)CC2)ccc1Nc1ncc(Cl)c(Nc2ccccc2NS(C)(=O)=O)n1` (centres unmarked) [Example 141, N-(2-((5-chloro-2-((4-(4-(4-(5-(4-(2-(2,6-dioxopiperidin-3-yl)-1,3-dioxoisoindolin-5-yl)piperazin-1-yl)pentanoyl)piperazin-1-yl)piperidin-1-yl)-2-methoxyphenyl)amino)pyrimidin-4-yl)amino)phenyl)methanesulfonamide] the same measures were 19.2 nM and 82%.
For `COc1cc(N2CCN(CCCOc3ccc(OC4CCC(=O)NC4=O)cc3)CC2)c(C)cc1Nc1ncc(Br)c(Nc2ccc3nccnc3c2P(C)(C)=O)n1` (centres unmarked) [Example 92, 3-(4-(3-(4-(4-((5-bromo-4-((5-(dimethylphosphoryl)quinoxalin-6-yl)amino)pyrimidin-2-yl)amino)-5-methoxy-2-methylphenyl)piperazin-1-yl)propoxy)phenoxy)piperidine-2,6-dione] the same measures were 306 nM and 76.8%.
On EGFR (HCC827 cells), `COc1cc(N2CCC(N3CCN(CCCOc4ccc(OC5CCC(=O)NC5=O)cc4)CC3)CC2)ccc1Nc1ncc(Cl)c(Nc2ccccc2P(C)(C)=O)n1` (centres unmarked) [Example 109, 3-(4-(3-(4-(1-(4-((5-chloro-4-((2-(dimethylphosphoryl)phenyl)amino)pyrimidin-2-yl)amino)-3-methoxyphenyl)piperidin-4-yl)piperazin-1-yl)propoxy)phenoxy)piperidine-2,6-dione] returned a DC50 of 189 nM and a Dmax of 79.6%.
